Assay results published in the NIST ThermoML archive (doi:10.1021/je060271a).

Settings: 283.15 K, Liquid, Vibrating tube method

CCCCC(=O)OCC(COC(=O)CCCC)(COC(=O)CCCC)COC(=O)CCCC [pentaerythritol tetrapentanoate]
Settings	mass density [kg/m3]
27222 kPa	1042.2
27265 kPa	1042.3
27300 kPa	1042.3
27336 kPa	1042.4
27379 kPa	1042.4
27415 kPa	1042.3
27450 kPa	1042.4
27493 kPa	1042.5
27528 kPa	1042.4
27564 kPa	1042.3
27608 kPa	1042.5
27645 kPa	1042.6
27681 kPa	1042.5
27718 kPa	1042.5
27762 kPa	1042.5
27798 kPa	1042.5
27842 kPa	1042.6
27879 kPa	1042.6
27916 kPa	1042.6
27961 kPa	1042.6
27998 kPa	1042.8
28035 kPa	1042.7
28074 kPa	1042.8
28121 kPa	1042.7
28158 kPa	1042.7
28196 kPa	1042.8
28241 kPa	1042.8
28279 kPa	1042.8
28316 kPa	1042.8
28354 kPa	1042.8
28400 kPa	1042.8
28438 kPa	1043
28477 kPa	1043
28524 kPa	1043
28563 kPa	1043
28610 kPa	1043
28652 kPa	1043
28691 kPa	1043.1
28730 kPa	1043.1
28770 kPa	1043
28816 kPa	1043.1
28856 kPa	1043.1
28896 kPa	1043.1
28944 kPa	1043.2
28984 kPa	1043.2
29024 kPa	1043.1
29072 kPa	1043.3
29112 kPa	1043.2
29153 kPa	1043.3
29194 kPa	1043.3
29244 kPa	1043.3
29285 kPa	1043.3
29333 kPa	1043.4
29375 kPa	1043.4
29416 kPa	1043.4
29458 kPa	1043.4
29508 kPa	1043.4
29549 kPa	1043.5
29592 kPa	1043.4
29642 kPa	1043.4
29685 kPa	1043.6
29737 kPa	1043.6
29782 kPa	1043.6
29825 kPa	1043.6
29869 kPa	1043.7
29926 kPa	1043.7
29972 kPa	1043.7
30019 kPa	1043.7
30074 kPa	1043.7
30106 kPa	1043.7
30144 kPa	1043.9
30175 kPa	1043.8
30205 kPa	1043.8
30243 kPa	1043.8
30275 kPa	1043.9
30307 kPa	1043.9
30340 kPa	1044
30379 kPa	1043.8
30413 kPa	1043.9
30453 kPa	1043.9
30485 kPa	1044
30517 kPa	1044
30549 kPa	1044
30588 kPa	1043.9
30621 kPa	1044
30653 kPa	1044.2
30692 kPa	1044
30724 kPa	1044.1
30757 kPa	1044.1
30795 kPa	1044.1
30828 kPa	1044.1
30860 kPa	1044.2
30899 kPa	1044.1
30932 kPa	1044.2
30965 kPa	1044.2
31004 kPa	1044.3
31038 kPa	1044.2
31071 kPa	1044.3
31110 kPa	1044.2
31144 kPa	1044.3
31178 kPa	1044.4
31218 kPa	1044.3
31252 kPa	1044.4
31285 kPa	1044.5
31325 kPa	1044.3
31359 kPa	1044.5
31393 kPa	1044.4
31427 kPa	1044.5
31468 kPa	1044.5
31503 kPa	1044.5
31544 kPa	1044.5
31578 kPa	1044.5
31613 kPa	1044.6
31650 kPa	1044.6
31685 kPa	1044.5
31726 kPa	1044.7
31762 kPa	1044.6
31797 kPa	1044.7
31839 kPa	1044.7
31874 kPa	1044.7
31909 kPa	1044.7
31951 kPa	1044.8
31987 kPa	1044.8
32023 kPa	1044.7
32066 kPa	1044.8
32103 kPa	1044.7
32141 kPa	1044.8
32177 kPa	1044.8
32214 kPa	1044.9
32257 kPa	1044.9
32294 kPa	1044.9
32337 kPa	1044.8
32373 kPa	1045.1
32410 kPa	1044.9
32447 kPa	1044.9
32491 kPa	1045
32528 kPa	1045
32572 kPa	1045
32609 kPa	1045.1
32647 kPa	1045.2
32691 kPa	1045.2
32728 kPa	1045.1
32766 kPa	1045.2
32804 kPa	1045.1
32850 kPa	1045.1
32887 kPa	1045.2
32925 kPa	1045.2
32971 kPa	1045.2
33008 kPa	1045.2
33055 kPa	1045.3
33093 kPa	1045.2
33133 kPa	1045.3
33172 kPa	1045.3
33218 kPa	1045.3
33258 kPa	1045.4
33297 kPa	1045.4
33344 kPa	1045.4
33383 kPa	1045.5
33430 kPa	1045.5
33471 kPa	1045.4
